One assay relates to Ab 19606 (COLhet^R). Type of assay: cell-based, Acinetobacter baumannii. The conditions noted are these: media CA-MHB. Here is the method:
(§1) Briefly, stock solutions of all antibacterial agents were prepared fresh in appropriate solvents (i.e. PBS, pH 7.4, DMSO, DI, etc.). Stock concentrations for drug conjugates were made at 12.5× the highest final assay concentration. All were serially diluted 2-fold, 8 or 12 times in a 96-well PCR plate (VWR cat. no. 83007-374). Bacterial cell suspensions generated from Mueller-Hinton agar (MHA) plate cultures were prepared in 0.85% saline and adjusted to ˜0.1 OD600 nm. Next, cell suspensions were diluted 1:200 in RPMI containing 5% Luria Broth (LB) to improve bacterial growth (BD Difco, cat. no. 244620) to a concentration of ˜5×10^5 CFU (colony-forming units)/mL. Due to poor solubility in Mueller-Hinton broth media, drug conjugates were evaluated in RPMI 1640 medium (+) L-glutamine, (+) sodium bicarbonate, pH 7.4 (“RPMI B”; Gibco, cat. no. 11875-085) as has been described as a more physiologically-relevant media for susceptibility testing of antibacterial compounds (1). For the conjugates, 92 μL of each cell suspension in RPMI B were added in the same 96-well plate assay format. […] Compounds were tested against a 14-strain panel comprised of E. coli (Ec), A. baumannii (Ab), P. aeruginosa (Pa), and K. pneumoniae (Kp) that were obtained from ATCC (Ec 25922, Ec 2489, Ab 19606, Pa 27853, Pa PAO1, Kp 43816, Kp 10031), Centers for Disease Control and Prevention (Ec AR0349), BEI Resources (Ab AB5075), Micromyx LLC (Ab 8990, Kp 6951), and Belgian Coordinated Collections of Microorganisms (Pa LES431) or generated in-house (Ec 25922 64X-1). […] E. coli strain ATCC 25922 and P. aeruginosa strain LES431 were run in the presence and absence of 50% heat-inactivated fetal bovine serum (FBS; Sigma, cat. no. F4135-100 mL). Plates were mixed by shaking then incubated at 35° C. overnight (16-20 h).

The subject of a further assay is Kp 10031. Type of assay: cell-based, Klebsiella pneumoniae. How it is done:
(§2) Briefly, stock solutions of all antibacterial agents were prepared fresh in appropriate solvents (i.e. PBS, pH 7.4, DMSO, DI, etc.). Stock concentrations for drug conjugates were made at 12.5× the highest final assay concentration. All were serially diluted 2-fold, 8 or 12 times in a 96-well PCR plate (VWR cat. no. 83007-374). Bacterial cell suspensions generated from Mueller-Hinton agar (MHA) plate cultures were prepared in 0.85% saline and adjusted to ˜0.1 OD600 nm. […] For the conjugates, 92 μL of each cell suspension in RPMI B were added in the same 96-well plate assay format. […] Compounds were tested against a 14-strain panel comprised of E. coli (Ec), A. baumannii (Ab), P. aeruginosa (Pa), and K. pneumoniae (Kp) that were obtained from ATCC (Ec 25922, Ec 2489, Ab 19606, Pa 27853, Pa PAO1, Kp 43816, Kp 10031), Centers for Disease Control and Prevention (Ec AR0349), BEI Resources (Ab AB5075), Micromyx LLC (Ab 8990, Kp 6951), and Belgian Coordinated Collections of Microorganisms (Pa LES431) or generated in-house (Ec 25922 64X-1). […] E. coli strain ATCC 25922 and P. aeruginosa strain LES431 were run in the presence and absence of 50% heat-inactivated fetal bovine serum (FBS; Sigma, cat. no. F4135-100 mL). Plates were mixed by shaking then incubated at 35° C. overnight (16-20 h).

Another assay relates to Kp 43816. In kind it is cell-based, Klebsiella pneumoniae. Here is the method: as §2
For another assay, the system named is Kp 6951 (COL^R). Type of assay: cell-based, Klebsiella pneumoniae. Here is the method: as §2
The next assay has as its system Ec AR0349 (mcr-1, COL^R). Type of assay: cell-based, Escherichia coli. The conditions noted are these: media CA-MHB. Here is the method:
as §1

In the next assay the test system is Ec 25922 64X-1 (COL^R). Type of assay: cell-based, Escherichia coli. The note with it: media CA-MHB. Here is the method: as §1
The next assay concerns Ec 2469. Type of assay: cell-based, Escherichia coli. Here is the method:
as §2

In the next assay the test system is Ec 25922. In kind it is cell-based, Escherichia coli. How it is done:
as §2

The subject of another assay is Pa LES431. Type of assay: cell-based, Pseudomonas aeruginosa. Here is the method:
as §2

The next assay has as its system Pa PAO1. Type of assay: cell-based, Pseudomonas aeruginosa. Here is the method:
as §2

In a further assay the test system is Pa 27853. In kind it is cell-based, Pseudomonas aeruginosa. Here is the method:
as §2

The test system of the next assay is Ab 8990 (COL^R). In kind it is cell-based, Acinetobacter baumannii. Here is the method: as §2
Another assay deals with Ab AB5075. In kind it is cell-based, Acinetobacter baumannii. How it is done: as §2

≈ marks a conversion by molar mass, not a printed value. Read-outs that look alike come from different tables or passages of the source. *1 amine or outer side, *2 acyl side, *3 side chain or, on linkers, in order; H or OH if unused. Where a SMILES comes first, the peptide text is derived from it. Bridges are numbered along the chain shown (N, C = ends). Roman numbers before positions name the chains, in order. [ ]: non-standard residue; d: D form. ξ: configuration not given here. X9 = C#CCOCCOCCOCCOCCC(=O)N1C[C@@H](C(=O)[*:1])[C@H](C(=O)[*:2])C1; X4 = C#CCOCCOCCOCCOCCNC(=O)CN(CC(=O)[*:1])CC(=O)[*:2]; X3 = CCCCC[C@@H](O)[C@H](N[*:1])C(=O)[*:2]; Nle = CCCC[C@H](N)C(=O)O; ξF = NC(Cc1ccccc1)C(=O)O; Dab = NCC[C@H](N)C(=O)O; ξT = CC(O)C(N)C(=O)O; azaGly = NNC(=O)O Some results are limits rather than exact numbers.

What is called MIC is the smallest concentration in the dilution series that meets the test's criterion for growth inhibition. Turning to `C#CCOCCOCCOCCOCCC(=O)N1C[C@@H](C(=O)N[C@@H](CCCC)C(=O)N[C@@H](CCN)C(=O)N[C@H](C(=O)NNC(=O)N[C@H]2CCNC(=O)[C@H]([C@@H](C)O)NC(=O)[C@H](CCN)NC(=O)[C@H](CCN)NC(=O)[C@H](CC(C)C)NC(=O)C(Cc3ccccc3)NC(=O)[C@H](CCN)NC2=O)[C@@H](C)O)[C@H](C(=O)N[C@@H](CCCC)C(=O)N[C@@H](CCN)C(=O)N[C@H](C(=O)NNC(=O)N[C@H]2CCNC(=O)C(C(C)O)NC(=O)[C@H](CCN)NC(=O)[C@H](CCN)NC(=O)[C@H](CC(C)C)NC(=O)[C@@H](Cc3ccccc3)NC(=O)[C@H](CCN)NC2=O)[C@@H](C)O)C1` (stereo partly shown) [Int-107] (I: [Nle][Dab]T[azaGly][Dab][Dab][dF]L[Dab][Dab][ξT] / II: [Nle][Dab]T[azaGly][Dab][Dab][ξF]L[Dab][Dab]T; lactam I:5-I:C, II:5-II:C; linker I:N-II:N via X9), the MIC against Ab 19606 (COLhet^R) came to 2 µg/mL (≈ 0.759 µM); against Kp 10031 (Kp 10031, media CA-MHB), 2 µg/mL (≈ 0.759 µM); against Kp 43816 (Kp 43816, media CA-MHB), 2 µg/mL (≈ 0.759 µM); in the assay with Kp 6951 (COL^R) (Kp 6951 (COL^R), media CA-MHB) it was 16 µg/mL (≈ 6.07 µM); with Ec AR0349 (mcr-1, COL^R), 2 µg/mL (≈ 0.759 µM); in the assay on Ec 25922 64X-1 (COL^R) it was 4 µg/mL (≈ 1.52 µM). The MIC was found to be 2 µg/mL (≈ 0.759 µM) in the assay on Ec 2469 (Ec 2469, media CA-MHB); 0.5 µg/mL in the assay on Ec 25922 (Ec 25922 + FBS (50%, heat-inactivated), media CA-MHB); 2 µg/mL (≈ 0.759 µM) in the assay with Ec 25922 (Ec 25922, media CA-MHB); 8 µg/mL with Pa LES431 (Pa LES431 + FBS (50%, heat-inactivated), media CA-MHB); 2 µg/mL (≈ 0.759 µM) in the assay with Pa LES431 (Pa LES431, media CA-MHB); 2 µg/mL (≈ 0.759 µM) in the assay with Pa PAO1 (Pa PAO1, media CA-MHB). In addition, the MIC with Pa 27853 (Pa 27853, media CA-MHB) is 2 µg/mL (≈ 0.759 µM); in the assay on Ab 8990 (COL^R) (Ab 8990 (COL^R), media CA-MHB), over 128 µg/mL; in the assay on Ab AB5075 (Ab AB5075, media CA-MHB), 2 µg/mL (≈ 0.759 µM).
Turning to `C#CCOCCOCCOCCOCCNC(=O)CN(CC(=O)N[C@@H](CCCC)C(=O)N[C@@H](CCN)C(=O)N[C@H](C(=O)NNC(=O)N[C@H]1CCNC(=O)[C@H]([C@@H](C)O)NC(=O)[C@H](CCN)NC(=O)[C@H](CCN)NC(=O)[C@H](CC(C)C)NC(=O)[C@@H](Cc2ccccc2)NC(=O)[C@H](CCN)NC1=O)[C@H](O)CCCCC)CC(=O)N[C@@H](CCCC)C(=O)N[C@@H](CCN)C(=O)N[C@H](C(=O)NNC(=O)N[C@H]1CCNC(=O)[C@H]([C@@H](C)O)NC(=O)[C@H](CCN)NC(=O)[C@H](CCN)NC(=O)[C@H](CC(C)C)NC(=O)[C@@H](Cc2ccccc2)NC(=O)[C@H](CCN)NC1=O)[C@H](O)CCCCC` [Int-111] (I: [Nle][Dab][X3][azaGly][Dab][Dab][dF]L[Dab][Dab]T / II: [Nle][Dab][X3][azaGly][Dab][Dab][dF]L[Dab][Dab]T; lactam I:5-I:C, II:5-II:C; linker I:N-II:N via X4), the MIC against Ab 19606 (COLhet^R) is 4 µg/mL (≈ 1.45 µM); in the assay on Kp 10031 it was 4 µg/mL (≈ 1.45 µM); in the assay on Kp 43816 it was 4 µg/mL (≈ 1.45 µM); in the assay with Kp 6951 (COL^R), 8 µg/mL (≈ 2.91 µM); with Ec AR0349 (mcr-1, COL^R), 4 µg/mL (≈ 1.45 µM); in the assay with Ec 25922 64X-1 (COL^R), 4 µg/mL (≈ 1.45 µM). For the same molecule, the MIC amounted to 4 µg/mL (≈ 1.45 µM) in the assay on Ec 2469; 4 µg/mL (≈ 1.45 µM) against Ec 25922; 4 µg/mL (≈ 1.45 µM) in the assay with Pa LES431; 8 µg/mL (≈ 2.91 µM) in the assay with Pa PAO1 (PAO1); 4 µg/mL (≈ 1.45 µM) with Pa 27853; 32 µg/mL (≈ 11.6 µM) against Ab 8990 (COL^R). The MIC against Ab AB5075 was found to be 4 µg/mL (≈ 1.45 µM).

The values are drawn from patent publication US20230165970A1, “COMPOSITIONS AND METHODS FOR THE TREATMENT OF BACTERIAL INFECTIONS” (priority 2017, published 2023).
